Our source for the IC50 values is US8796259B2, “N3-heteroaryl substituted triazoles and N5-heteroaryl substituted triazoles useful as axl inhibitors” (Rigel Pharmaceuticals, Inc., priority 2006, dated 2014).

A value given as a limit tells only on which side of the number the result lay.

This test has as its target T1, Axl (Homo sapiens, UniProt P30530).
T1 construct: endogenous in cells; host or cells: HeLa cells
T1 sequence (P30530 26-894): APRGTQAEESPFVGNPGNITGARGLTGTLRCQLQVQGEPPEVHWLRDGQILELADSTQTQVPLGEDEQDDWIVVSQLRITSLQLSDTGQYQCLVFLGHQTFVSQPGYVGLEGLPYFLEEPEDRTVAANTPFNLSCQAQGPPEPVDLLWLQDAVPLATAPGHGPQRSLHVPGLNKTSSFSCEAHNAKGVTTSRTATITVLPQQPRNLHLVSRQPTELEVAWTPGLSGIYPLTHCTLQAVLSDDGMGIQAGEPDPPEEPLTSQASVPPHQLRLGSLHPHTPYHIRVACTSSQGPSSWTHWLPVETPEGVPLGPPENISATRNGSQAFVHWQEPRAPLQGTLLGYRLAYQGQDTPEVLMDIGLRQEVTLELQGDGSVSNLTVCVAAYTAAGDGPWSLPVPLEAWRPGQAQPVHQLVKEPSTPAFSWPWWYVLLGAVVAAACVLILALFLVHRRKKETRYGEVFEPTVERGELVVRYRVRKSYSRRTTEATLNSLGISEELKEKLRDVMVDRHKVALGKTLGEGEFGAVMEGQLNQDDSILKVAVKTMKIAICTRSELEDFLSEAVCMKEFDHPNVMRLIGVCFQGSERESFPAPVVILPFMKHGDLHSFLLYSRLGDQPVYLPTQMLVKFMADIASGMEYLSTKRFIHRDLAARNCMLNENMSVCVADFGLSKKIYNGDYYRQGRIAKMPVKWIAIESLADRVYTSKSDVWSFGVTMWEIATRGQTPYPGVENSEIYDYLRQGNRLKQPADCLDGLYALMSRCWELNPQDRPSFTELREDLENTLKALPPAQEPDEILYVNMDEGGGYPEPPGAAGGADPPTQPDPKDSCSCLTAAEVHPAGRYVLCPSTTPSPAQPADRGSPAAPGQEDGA
Description: Phospho-Akt in-cell Western assay (inhibition of Axl activity, Axl-antibody cross-linking stimulation). It counts as cell-based. Particulars: Hela cells, phospho-Akt readout; compounds of formula (Ia), Table 1. Here is the method: The compounds of the invention were tested in the following assay for their ability to inhibit Axl activity.
Phospho-Akt in-Cell Western Assay
• Cell culture plate: 96 well assay plate (Corning 3610), white, clear bottom, tissue-culture treated. • Cells: Hela cells. • Starvation medium: For Axl stimulation: 0.5% FCS (fetal calf serum) in DMEM, plus Axl/Fc (extracellular domain of AXL fused to immunoglobulin Fc region) (R&D, 154-AL) 500 ng/mL. • For EGF (epidermal growth factor) stimulation: 0.5% FCS in DMEM (Dulbecco's modified Eagles medium). • Poly-L-Lysine 0.01% solution (the working solution): 10 μg/ml, dilute In PBS (phosphate buffered saline). • Axl antibody cross-linking: • 1st: Mouse anti-Axl (R&D, MAB154). • 2nd: Biotin-SP-conjugated AffiniPure goat anti-mouse IgG (H+L) (Jackson ImmunoResearch #115-065-003). • Fixing buffer: 4% formaldehyde in PBS. • Wash buffer: 0.1% TritonX-100 in PBS. • Quenching buffer: 3% H2O2, 0.1% Azide in wash buffer, Azide and hydrogen peroxide (H2O2) are added fresh. • Blocking buffer: 5% BSA in TBST (tris buffered saline plus 0.1% Tween 20). • Primary antibody: Rabbit anti-human Phospho-Akt antibody (Cell Signaling 9271): 1×250 diluted in blocking buffer. • Secondary antibody: HRP (horse radish peroxidase)-conjugated Goat anti-Rabbit secondary, stock solution: Jackson ImmunoResearch (Goat anti-Rabbit HRP, #111-035-144) 1:1 diluted in glycerol, store at −20° C. The working solution: 1×2000 dilution of stock in blocking buffer. • Chemiluminescent working solution (Pierce, 37030): SuperSignal ELISA (enzyme linked immunosorbant assay) Pico Chemiluminescent substrate. • Crystal Violet solution: Stock: 2.5% Crystal violet in methanol, filtered and kept at ambient temperature. The working solution: dilute the stock 1:20 with PBS immediately before use.
10% SDS: working solution: 5% SDS (sodium dodecylsulfate), diluted in PBS
A 96 well TC (tissue culture treated) plate was coated with 10 μg/mL poly-L-Lysine at 37° C. for 30 min, washed twice with PBS, and air-dried for 5 minutes before cells were added. Hela cells were seeded at 10,000 cells/well and the cells were starved in 100 μL starvation medium containing Axl/Fc for 24 hrs.
The cells were pre-treated with test compounds by adding 100 μL of 2× test compound to the starvation medium on the cells. The cells were incubated at 37° C. for 1 hr before stimulation.
The cells were stimulated by Axl-antibody cross-linking as follows: A 5×1st/2nd Axl antibody mixture was made (37.5 μg/mL 1st/100 μg/mL 2 nd) in starvation medium and nutated at 4° C. with thorough mixing for 1-2 hours for clustering. The resulting mix was warmed to 37° C. 50 μL of 5×Axl 1st/2nd of antibody cluster was added to the cells and the cells were incubated at 37° C. for 5 min.
After 5 minutes stimulation, the plate was flicked to remove medium and the plate was tapped onto paper towels. Formaldehyde (4.0% in PBS, 100 μL) was added to fix the cells and the cells were incubated at ambient temperature for 20 min without shaking.
The cells were washed with a plate washer buffer to remove the formaldehyde solution. The plate was flicked to removed excess wash buffer and tapped onto paper towels. Quenching buffer (100 μL) was added to each well and the cells were incubated at ambient temperature for 20 minutes without shaking.
The cells were washed with a plate washer buffer to remove the quenching buffer. Blocking buffer (100 μL) was added and the cells were incubated at ambient temperature for at least an hour with gentle shaking.
The cells were washed with a plate washer buffer and diluted primary antibody (50 μL) was added to each well (blocking buffer was added to the negative control wells instead). The plates were incubated overnight at 4° C. with gentle shaking.
The wash buffer was removed, diluted secondary antibody (100 μL) was added, and the cells were incubated at ambient temperature for 1 hour with gentle shaking. […]

For the compound `Cc1csc2c(-n3nc(Nc4ccc(N5CCC(N6CCCCC6)CC5)nc4)nc3N)nc(Cl)nc12` [compound 28, 1-(2-chloro-7-methylthieno [3,2-d]pyrimidine-4-yl)-N^3-(6-(4-piperidin-1-ylpiperidin-1-yl)pyridine-3-yl)-1H-1,2,4-triazole-3,5-diamine], the IC50 is below 1 µM. For `Cc1csc2c(-n3nc(Nc4ccc(N5CCN(CC6CC6)CC5)nc4)nc3N)nc(Cl)nc12` [compound 48, 1-(2-chloro-7-methylthieno [3,2-d]pyrimidin-4-yl)-N^3-(6-(4-cyclopropyl-methyl-piperazin-1-yl)pyridin-3-yl)-1H-1,2,4-triazole-3,5-diamine], the IC50 was below 1 µM. `Cc1csc2c(-n3nc(Nc4cnc5c(c4)CN(C(=O)C4CCNCC4)CC5)nc3N)nc(Cl)nc12` [compound 87, 1-(2-chloro-7-methylthieno [3,2-d]pyrimidin-4-yl)-N^3-(6-(piperidin-4-ylcarbonyl)-5,6,7,8-tetrahydro-1,6-naphthyridin-3-yl)-1H-1,2,4-triazole-3,5-diamine]: the IC50 is above 20 µM. With `Cc1cc(Nc2nc(N)n(-c3nc(Cl)nc4c(C)csc34)n2)cnc1N1CCN([C@H]2CC3CCC2C3)[C@@H](C)C1` (stereo partly drawn) [compound 107, 1-(2-chloro-7-methylthieno [3,2-d]pyrimidin-4-yl)-N^3-(2-(3-(S)-methyl-4-(2S)-bicyclo[2.2.1]heptan-2-ylpiperazin-1-yl)-3-methylpyridin-5-yl)-1H-1,2,4-triazole-3,5-diamine], the IC50 was below 1 µM. In turn, `Cc1cc(Nc2nc(N)n(-c3nc4ccccc4c4ccccc34)n2)cnc1N1CCC(N2CCCC2)CC1` [compound 43, 1-(phenanthridin-6-yl)-N^3-(6-(4-(pyrrolidin-1-yl)piperidin-1-yl)-5-methylpyridin-3-yl)-1H-1,2,4-triazole-3,5-diamine] yielded an IC50 below 1 µM. As to `Cc1cc(Nc2nc(N)n(-c3ncnc4c(C)csc34)n2)cnc1N1CCN([C@H]2CC3CCC2C3)CC1` (stereo partly drawn) [compound 111, 1-(7-methylthieno [3,2-d]pyrimidin-4-yl)-N^3-(2-(4-(2S)-bicyclo[2.2.1]heptan-2-ylpiperazin-1-yl)-3-methylpyridin-5-yl)-1H-1,2,4-triazole-3,5-diamine], the IC50 is below 1 µM. As for `Nc1nc(Nc2ccc3oc(CN4CCCC4)nc3c2)nn1-c1ncnc2ccc(Cl)cc12` [compound 2, 1-(6-chloro-quinazolin-4-yl)-N^3-(2-(pyrrolidin-1-ylmethyl)benzo [d]oxazol-5-yl)-1H-1,2,4-triazole-3,5-diamine], the figure is 1 to 10 µM; as for `Nc1nc(Nc2ccc3c(c2)OCCO3)nn1-c1ccccc1` [compound 3, N^3-(2,3-dihydrobenzo [b][1,4]dioxin-6-yl)-1-phenyl-1H-1,2,4-triazole-3,5-diamine], above 20 µM. Take `Cc1csc2c(-n3nc(Nc4ccc(N5CCN(CC6CC6)CC5)nc4)nc3N)ncnc12` [compound 89, 1-(7-methylthieno [3,2-d]pyrimidine-4-yl)-N^3-(6-(4-(cyclopropyl-methyl)piperazin-1-yl)pyridine-3-yl)-1H-1,2,4-triazole-3,5-diamine]: the IC50 was below 1 µM.

For `Cc1csc2c(-n3nc(Nc4cnc5c(c4)CC(NC(=O)C4CCN(C)CC4)CC5)nc3N)ncnc12` (stereo not drawn) [compound 98], the IC50 is below 1 µM.

Compound `Cc1csc2c(-n3nc(Nc4cnc5c(c4)CN(CC4CC4)CC5)nc3N)nc(Cl)nc12` [compound 101, 1-(2-chloro-7-methylthieno [3,2-d]pyrimidin-4-yl)-N^3-(6-cyclopropyl-methyl-5,6,7,8-tetrahydro-1,6-naphthyridin-3-yl)-1H-1,2,4-triazole-3,5-diamine] showed an IC50 below 1 µM.

For the compound `Cc1csc2c(-n3nc(Nc4cnc5c(c4)CC4(CC5)OCCO4)nc3N)nc(Cl)nc12` [compound 60, 1-(2-chloro-7-methylthieno [3,2-d]pyrimidin-4-yl)-N^3-(7′,8′-dihydro-5′H-spiro[[1,3]dioxolane-2,6′-quinoline]-3′-yl)-1H-1,2,4-triazole-3,5-diamine], the 50% inhibitory concentration (IC50) is below 1 µM.

Compound `COc1cc2ncnc(-n3nc(Nc4ccc(C=CCN5CCN(C6CCCC6)CC5)nc4)nc3N)c2cc1OC` [compound 90, 1-(6,7-dimethoxy-quinazoline-4-yl)-N^3-(6-(3-(4-cyclopentyl-piperazin-1-yl)propenyl)pyridin-3-yl)-1H-1,2,4-triazole-3,5-diamine] yielded an IC50 below 1 µM. For `Cc1csc2c(-n3nc(Nc4ccc(N5CCC(CN6CCCC6)CC5)nc4)nc3N)nc(Cl)nc12` [compound 33, 1-(2-chloro-7-methylthieno [3,2-d]pyrimidin-4-yl)-N^3-(6-(4-(pyrrolidin-1-ylmethyl)piperidin-1-yl)pyridin-3-yl)-1H-1,2,4-triazole-3,5-diamine], the IC50 is below 1 µM.

Compound `COc1cc2ncnc(-n3nc(Nc4ccc5c(c4)NC(=O)CCC5)nc3N)c2cc1OC` [compound 9, 1-(6,7-dimethoxy-quinazoline-4-yl)-N^3-(4,5-dihydro-1H-benzo[b]azepin-2(3H)-on-8-yl)-1H-1,2,4-triazole-3,5-diamine] displayed an IC50 of 1 to 10 µM. Regarding `Cc1csc2c(-n3nc(Nc4cnc5c(c4)CC(NC4CC6CCC4C6)CC5)nc3N)nc(Cl)nc12` (stereo not drawn) [compound 103, 1-(2-chloro-7-methylthieno [3,2-d]pyrimidin-4-yl)-N^3-(6-bicyclo[2.2.1]heptan-2-yl-amino-5,6,7,8-tetrahydro-quinolin-3-yl)-1H-1,2,4-triazole-3,5-diamine], the IC50 was below 1 µM. Turning to `Cc1csc2c(-n3nc(Nc4ccc(C=CCN5CCCC5)nc4)nc3N)ncnc12` [compound 119, 1-(7-methylthieno [3,2-d]pyrimidin-4-yl)-N^3-(2-(3-(pyrrolidin-1-yl)propen-1-yl)pyridin-5-yl)-1H-1,2,4-triazole-3,5-diamine], the IC50 is below 1 µM. For `Cc1csc2c(-n3nc(Nc4ccc(C=CCN5CCC(N6CCN(C)CC6)CC5)nc4)nc3N)ncnc12` [compound 128, 1-(7-methylthieno [3,2-d]pyrimidin-4-yl)-N^3-(2-(3-(4-(4-methyl-piperazin-1-yl)piperidin-1-yl)propen-1-yl)pyridin-5-yl)-1H-1,2,4-triazole-3,5-diamine], the IC50 was below 1 µM.

In general, IC50 refers to the midpoint of a concentration-inhibition curve. Read a low IC50 as greater potency in that assay.
